In test [1] the test system is splenocytes from HLA-A*0201 transgenic C57BL/6 mice. Nature of the test: IFN-γ ELISPOT of splenocytes restimulated with peptide. In kind it is cell-based, mouse. Particulars: for IFN-γ ELISPOT, RSV: splenocytes of HLA-Tg B6 mice primed and boosted i.n. with 10^4 pfu RSV-B1; for IFN-γ ELISPOT, RSV / IFN-γ ELISPOT, rAd-F0: restimulated with 2 µg peptide, representative of two experiments, five mice per group; for IFN-γ ELISPOT, rAd-F0: splenocytes of HLA-Tg B6 mice primed and boosted i.n. with 10^7 pfu rAd-F0; for IFN-γ level in restimulated splenocytes (ELISPOT, text grading): splenocytes of rAd-F0- or RSV B1-primed and boosted HLA-Tg B6 mice, high = over 100 spots, moderate = over 50 spots. The procedure:
(§1) To screen the immunodominance of epitopic peptide in the induction of RSV-F specific Th1/Th2 expression, HLA-A*0201 transgenic C57BL/6 mice were anesthetized with isoflurane and immunized with 1×10^7 pfu/50 µL of rAd-F0 or rAd-LacZ or 1×10^4 live RSV B1 via the intranasal (i.n.) route. Twenty days later, the mice were given booster immunization i.n. with the same dose. After 10 days of boost, mice were sacrificed and splenocytes were isolated for the cytokine ELISPOT assay. For peptide-based vaccination, transgenic mice were immunized subcutaneously (s.c.) with 50 µg of the individual synthetic peptides emulsified in 25 µL of incomplete Freund's adjuvant (IFA) (Sigma-Aldrich) and then boosted after 10 days s.c. with the same dose of the respective peptides mixed with IFA. Mice were sacrificed 7 days after the booster and splenocytes were isolated for in vitro peptide-restimulation. For challenge studies, 10^7 pfu of live RSV-B1 was administered i.n. seven days after the booster immunization with peptide vaccines. Mice were sacrificed on day 4 post-challenge and the lung tissues were collected and subjected to further analysis by flow cytometry, ELISA, CTL assay and immunohistochemistry. Mice body weight was monitored daily.
(§2) […] RBC-free splenocyte suspensions prepared from the individual mice were seeded in individual wells of 96-well filtration plates (Millipore) precoated with capturing monoclonal antibodies for murine IL-2, IL-4 or IFN-γ (0.5 µg/ well) (eBioscience) and blocked with conditioned medium (CM) for 1 hour at room temperature. The splenocytes were added with the individual RSV F 9-mer synthetic peptides (2 µg each) or GLC-9 dissolved in CM (100 µL). The splenocytes added with Con A (10 µg/mL) were used as positive control. Unstimulated splenocytes were used as negative control. The plates were kept in a 37°C incubator equilibrated with 5% CO2 for 48 hours. The individual wells of the ELISPOT plates were washed three times with washing buffer (0.05% tween20 in PBS, PBS-T), and then 0.2 µg of the corresponding biotinylated detection monoclonal antibodies specific for IL-2, IL-4 and IFN-γ were added to detect the respective cytokines. After 2 hours of incubation at room temperature, the plates were washed and 100 µl of streptavidin-alkaline phosphatase (1∶ 250 dilution) was added to the individual wells, and the plates were incubated at room temperature for 45 minutes. Finally, the plates were washed four times with the wash buffer, and 100 µl of AEC (3-amine-9-ethylcarbazole, Sigma-Aldrich) substrate was added to each well and allowed to react for 30 minutes at room temperature in the dark. The plates were then washed with water, air-dried overnight, and the spots per well were scored using the immunospot counting reader (C.T.L. IMMUNOSPOT, CELLULAR TECHNOLOGY LTD). Results were expressed as the number of cytokine-secreting cells per 5×10^5 splenocytes seeded in the initial culture.
(§3) Figure 1 Induction of IFN-γ and IL-2 in splenocytes from RSV F peptide immunized HLA-A*0201 transgenic mice upon secondary recall. Splenocytes harvested on day 30 from HLA-A-Tg B6 mice primed and boosted at 20 days interval intranasally with 10^7 pfu of rAd-F0 (□) or 10^4 pfu of RSV-B1 (▪)were restimulated with 2 µg of the individual RSV F peptide or 10 µg/ml Con A for 5 days in the presence of murine IL-2 . After stimulation, 5×10^5 splenocytes were seeded to anti-IFN-γ (A) or anti-IL-2 (B) capture antibody coated ELISPOT plates for 2 days for ELISPOT assay as described in Materials and Methods. Cytokine-positive immunospots were developed and the results are expressed as the number of immunospots +/−2 standard deviations for each experimental group. Data is representative of results derived from two independent experiments, each with five mice per group.

Test [2] shares this test system. Nature of the test: IL-2 ELISPOT of splenocytes restimulated with peptide. Conditions: for IL-2 ELISPOT, RSV: splenocytes of HLA-Tg B6 mice primed and boosted i.n. with 10^4 pfu RSV-B1; for IL-2 ELISPOT, RSV / IL-2 ELISPOT, rAd-F0: restimulated with 2 µg peptide, representative of two experiments, five mice per group; for IL-2 ELISPOT, rAd-F0: splenocytes of HLA-Tg B6 mice primed and boosted i.n. with 10^7 pfu rAd-F0; for IL-2 level in restimulated splenocytes (ELISPOT, text grading): splenocytes of rAd-F0- or RSV B1-primed and boosted HLA-Tg B6 mice, high = over 100 spots, moderate = over 50 spots. In kind it is cell-based, mouse. How it is done:
as §1, §2, §3

In a further test the target is T1, HLA-A*0201 (Homo sapiens, UniProt P04439, D140Y/D185E/D98H/E176V/E277Q/G131W/G231S/I119V/I121R/I166T/I218V/L300P/L318F/N151K/N90K/P208A/P217A/Q86G/Q94H/R138H/R169H/T345S).
T1 construct: Human T2 cells (purchased from the American Type Culture Collection, ATCC) (ATCC No. CRL-1992) expressing the HLA-A*0201 gene; endogenous in cells; host or cells: human T2 cells (ATCC CRL-1992)
Nature of the test: T2 cell-stabilization assay (T2-binding). Particulars: for T2-binding Ratio of MFI: T2 cells 5×10^5, peptide 50 µg/mL + β2-microglobulin 5 µg/mL, 28°C 16–18 h, then brefeldin A 10 µg/mL 37°C 3 h, FITC anti-HLA-A2, flow cytometry, MFI relative to negative control HCV C55-74 (set as 1). The procedure:
T2 cells (5×10^5) cultured in 96-well U-bottom plates were incubated with the individual 9-mer synthetic peptides (50 µg/mL) and β2-microglobulin (5 µg/mL; Sigma-Aldrich) at 28°C for 16–18 hours. Subsequently, brefeldin A (10 µg/mL) was added and the cells were incubated at 37°C for another 3 hours, then washed and stained with fluorescence isothiocyanate (FITC)-conjugated mouse anti-human HLA-A2 antibody (SeroTec). Peptide-loaded T2 cells were acquired and analyzed on the FACScan flow cytometer using CellQuest software (Becton Dickinson). GLC-9 peptide was used as positive control (PC). The mean fluorescence intensity (MFI) represents the binding affinity of each peptide compared to MFI (set as MFI = 1) obtained from negative control (NC), which is T2 cells loaded with HCV peptide C55-74.
Twenty-five 9-mer synthetic peptides derived from the RSV F glycoprotein sequence presumed to encompass HLA-A*0201 binding motifs were synthesized (Table 1). Each was tested for its ability to bind HLA-A*0201 molecules by T2 cell-based binding assay (data not shown). The relative mean fluorescence intensity (MFI) obtained from the positive control (PC) peptide derived from Epstein-Barr virus capsid protein (GLC-9, a previously defined HLA-A*0201-restricted CTL epitope) was twofold (MFI = 1.96) compared to the baseline MFI = 1 obtained from the negative control (NC) treated with an unrelated peptide HCV C55-74 (a C57BL/6-specific CD4 epitope). […] The remaining peptides had no detectable binding to the HLA-A*0201 molecules. Apparently, the different MFIs generated by binding of RSV F-derived peptides to HLA-A*0201 reflects on the binding specificity of different peptides to a given HLA molecule.

The values that follow come from publication PMC3183052, “Immunoprotectivity of HLA-A2 CTL Peptides Derived from Respiratory Syncytial Virus Fusion Protein in HLA-A2 Transgenic Mouse” (PLoS ONE, 2011).

As to “11: HLA-A*0201-restricted 9-mer synthetic peptide from F protein of RSV-B1 strain (SLSNGVSVL) [compound 11]”, in test [1], the “IFN-γ ELISPOT, RSV” value is 200 cytokine-secreting cells per 5×10^5 splenocytes; the “IFN-γ ELISPOT, rAd-F0” value is on record as 68.5 cytokine-secreting cells per 5×10^5 splenocytes; the “IFN-γ level in restimulated splenocytes (ELISPOT, text grading)” value (shortened to “IFN-γ level in restimulated splenocytes”) is on record as “over 100 spots”. Also, in test [2], the “IL-2 ELISPOT, RSV” value is recorded as 56.5 cytokine-secreting cells per 5×10^5 splenocytes; the “IL-2 ELISPOT, rAd-F0” value is recorded as 51.5 cytokine-secreting cells per 5×10^5 splenocytes; the “IL-2 level in restimulated splenocytes (ELISPOT, text grading)” value (“IL-2 level in restimulated splenocytes” for short) is reported as “over 50 spots”. Further, the “T2-binding Ratio of MFI” value with HLA-A*0201 was 1.06.
With “12: HLA-A*0201-restricted 9-mer synthetic peptide from F protein of RSV-B1 strain (VLTSKVLDL) [compound 12]”, in test [1], the “IFN-γ ELISPOT, RSV” value is given as 116.5 cytokine-secreting cells per 5×10^5 splenocytes; the “IFN-γ ELISPOT, rAd-F0” value was 95.5 cytokine-secreting cells per 5×10^5 splenocytes; the “IFN-γ level in restimulated splenocytes” value was “over 100 spots”. Besides, in test [2], the “IL-2 ELISPOT, RSV” value is 36 cytokine-secreting cells per 5×10^5 splenocytes and the “IL-2 ELISPOT, rAd-F0” value is recorded as 44 cytokine-secreting cells per 5×10^5 splenocytes. The “T2-binding Ratio of MFI” value with HLA-A*0201 stood at 0.99.
In the case of “15: HLA-A*0201-restricted 9-mer synthetic peptide from F protein of RSV-B1 strain (KLMSNNVQI) [compound 15]”, in test [1], the “IFN-γ ELISPOT, RSV” value is 0 cytokine-secreting cells per 5×10^5 splenocytes and the “IFN-γ ELISPOT, rAd-F0” value is 39 cytokine-secreting cells per 5×10^5 splenocytes. Moreover, in test [2], the “IL-2 ELISPOT, RSV” value was 59.5 cytokine-secreting cells per 5×10^5 splenocytes; the “IL-2 ELISPOT, rAd-F0” value was 37 cytokine-secreting cells per 5×10^5 splenocytes; the “IL-2 level in restimulated splenocytes” value is on record as “over 50 spots”. In addition, the “T2-binding Ratio of MFI” value in the test with HLA-A*0201 is on record as 1.51.
“16: HLA-A*0201-restricted 9-mer synthetic peptide from F protein of RSV-B1 strain (LMSNNVQIV) [compound 16]”: in test [1], the “IFN-γ ELISPOT, RSV” value is listed as 28 cytokine-secreting cells per 5×10^5 splenocytes; the “IFN-γ ELISPOT, rAd-F0” value was 54 cytokine-secreting cells per 5×10^5 splenocytes; the “IFN-γ level in restimulated splenocytes” value is listed as “over 50 spots”. For the same substance, in test [2], the “IL-2 ELISPOT, RSV” value is 50.5 cytokine-secreting cells per 5×10^5 splenocytes; the “IL-2 ELISPOT, rAd-F0” value is 52 cytokine-secreting cells per 5×10^5 splenocytes; the “IL-2 level in restimulated splenocytes” value was “over 50 spots”. For the same substance, the “T2-binding Ratio of MFI” value in the test with HLA-A*0201 was 1.60.
For “18: HLA-A*0201-restricted 9-mer synthetic peptide from F protein of RSV-B1 strain (SVGNTLYYV) [compound 18]”, in test [1], the “IFN-γ ELISPOT, RSV” value is 92.5 cytokine-secreting cells per 5×10^5 splenocytes; the “IFN-γ ELISPOT, rAd-F0” value is on record as 115 cytokine-secreting cells per 5×10^5 splenocytes; the “IFN-γ level in restimulated splenocytes” value is reported as “over 100 spots”. Besides, in test [2], the “IL-2 ELISPOT, RSV” value is reported as 42 cytokine-secreting cells per 5×10^5 splenocytes and the “IL-2 ELISPOT, rAd-F0” value was 0 cytokine-secreting cells per 5×10^5 splenocytes. For the same substance, the “binding affinity, MFI higher than the baseline” value with HLA-A*0201 (T2 cell-based binding assay, baseline = negative control HCV C55-74, called modest binding affinity) is around 10%. Also, the “T2-binding Ratio of MFI” value in the test with HLA-A*0201 is 1.29.
For “19: HLA-A*0201-restricted 9-mer synthetic peptide from F protein of RSV-B1 strain (KINQSLAFI) [compound 19]”, in test [1], the “IFN-γ ELISPOT, RSV” value is listed as 7.5 cytokine-secreting cells per 5×10^5 splenocytes; the “IFN-γ ELISPOT, rAd-F0” value is 200 cytokine-secreting cells per 5×10^5 splenocytes; the “IFN-γ level in restimulated splenocytes” value was “over 100 spots”. Further, in test [2], the “IL-2 ELISPOT, RSV” value was 36.5 cytokine-secreting cells per 5×10^5 splenocytes; the “IL-2 ELISPOT, rAd-F0” value is given as 52 cytokine-secreting cells per 5×10^5 splenocytes; the “IL-2 level in restimulated splenocytes” value was “over 50 spots”. In addition, the “T2-binding Ratio of MFI” value with HLA-A*0201 was found to be 1.08.
As to “20: HLA-A*0201-restricted 9-mer synthetic peptide from F protein of RSV-B1 strain (IMITTIIIV) [compound 20]”, in test [1], the “IFN-γ ELISPOT, RSV” value is 9 cytokine-secreting cells per 5×10^5 splenocytes; the “IFN-γ ELISPOT, rAd-F0” value was 200 cytokine-secreting cells per 5×10^5 splenocytes; the “IFN-γ level in restimulated splenocytes” value is “over 100 spots”. In test [2], the “IL-2 ELISPOT, RSV” value was 24.5 cytokine-secreting cells per 5×10^5 splenocytes and the “IL-2 ELISPOT, rAd-F0” value is 32 cytokine-secreting cells per 5×10^5 splenocytes. Besides, the “T2-binding Ratio of MFI” value with HLA-A*0201 was found to be 1.03.
For the substance “21: HLA-A*0201-restricted 9-mer synthetic peptide from F protein of RSV-B1 strain (IIIVIIVIL) [compound 21]”, in test [1], the “IFN-γ ELISPOT, RSV” value is 80 cytokine-secreting cells per 5×10^5 splenocytes; the “IFN-γ ELISPOT, rAd-F0” value was 16.5 cytokine-secreting cells per 5×10^5 splenocytes; the “IFN-γ level in restimulated splenocytes” value is “over 50 spots”. In addition, in test [2], the “IL-2 ELISPOT, RSV” value is reported as 21 cytokine-secreting cells per 5×10^5 splenocytes and the “IL-2 ELISPOT, rAd-F0” value was 2.5 cytokine-secreting cells per 5×10^5 splenocytes. For the same substance, in the test with HLA-A*0201, the “T2-binding Ratio of MFI” value came out at 0.88.
